The text below walks through data of patent US7009045B2 (priority 2000, dated 2006).

What all share (format): cell-based
Assay [1] has as its system Candida famata wild type and regulatory mutants able to overproduce riboflavin on iron-rich medium. Description: Sensitivity after electroporation to 3CdSO4.8H20, Burkholder medium with 0.3 M sucrose (Table 20). Further details: key: +++: strong growth; ++: weak growth; +: very weak growth; —: absence of growth. On the procedure: (§1) Next, the toxicity of CdSO4 (0–25 μM) to regulatory mutants 2-5 and 4-48 and the C. famata wild strain was studied in the medium with sucrose (Table 20).
(§2) It was shown that all three strains appeared to be very sensitive to Cd^+2 ions without any differences between regulatory mutants and the wild-type strain.

Assay [2] has the same test system. The description is as above. Further details: key: +++: strong growth; ++: weak growth; —: absence of growth. The procedure:
as §1, §2

Assay [3] concerns Candida famata regulatory mutants unable to overproduce riboflavin. Description: Sensitivity to monofluoroacetate, Burkholder medium with 0.5% glycerol (Table 7). The settings on record: MFA 0.2–0.4%. The source says: (§3) In further experiments, the influence of the aconitase inhibitor, 2-monofluoroacetate (MFA), on the growth of C.famata regulatory mutants unable to overproduce riboflavin was studied in media with glucose (0.5%) or glycerol (0.5%) as the carbon sources.

The test system is the same in assay [4]. In words: Sensitivity to monofluoroacetate, Burkholder medium with 0.5% glucose (Table 8).
Source text: as §3

Consider `O.O.O.O.O.O.O.O.O=S(=O)([O-])[O-].O=S(=O)([O-])[O-].O=S(=O)([O-])[O-].[Cd+2].[Cd+2].[Cd+2]` [CdSO4×8H2O], for which the growth entry in assay [1] (#2-5, 15 μM) is recorded as “+”; in assay [1] (#2-5, 20 μM) it was “+”; in assay [1] (#4-48, 15 μM), “+”; in assay [1] (#4-48, 20 μM), “+”; in assay [1] (VKM Y-9, 15 μM) it was “+”; in assay [1] (VKM Y-9, 20 μM), “+”. Besides, the growth entry in assay [2] (#2-5, 5 μM) was “++”; in assay [2] (#2-5, 10 μM), “++”; in assay [2] (#2-5, 25 μM), “—”; in assay [2] (#4-48, 5 μM), “++”; in assay [2] (#4-48, 10 μM), “++”; in assay [2] (#4-48, 25 μM) it was “—”. Further, the growth result in assay [2] (VKM Y-9, 5 μM) is reported as “+++”; in assay [2] (VKM Y-9, 10 μM), “++”; in assay [2] (VKM Y-9, 25 μM), “—”.

On to `O=C(O)CF` [MFA, 2-monofluoroacetate], for which the “effect on growth of wild type VKM Y-9 and leu2 auxotroph L20105” value in assay [3] is reported as “not inhibited at all”. In addition, the “effect on growth of most regulatory mutants” value in assay [4] is on record as “did not inhibit growth”.
